Data: PubChem BioAssay (NCI)
“And” between values parts separate entries of the source, which are not always exact repeats. Identical values can stand only once.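 Growth conditions: 96-well plates. Treatment: test compound, 48 hours, 5 concentrations. Analysis: linear interpolation between bracketing concentrations; unreached endpoints set to highest concentration. Abbreviation: GI50, concentration required for 50% inhibition of growth. TGI is the concentration that stops growth completely.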

Assays:
Experiment in all cases: DTP human tumour cell line panel, 48 h
[1] = system: MOLT-4 leukemia
[2] = system: SR leukemia
[3] = system: OVCAR-5 ovarian
[4] = system: IGROV1 ovarian
[5] = system: NCI-H522 lung
[6] = system: M14 melanoma
[7] = system: MDA-MB-231 breast
[8] = system: UACC-62 melanoma
[9] = system: CAKI-1 renal
[10] = system: NCI-H460 lung

Compound	TGI [1]	TGI [2]	TGI [3]	TGI [4]	TGI [5]	TGI [6]	TGI [7]	TGI [8]	TGI [9]	TGI [10]	GI50 [1]	GI50 [2]	GI50 [3]	GI50 [4]	GI50 [5]	GI50 [6]	GI50 [7]	GI50 [8]	GI50 [9]	GI50 [10]
CN(C)C(=S)SCC(=O)Nc1ccccc1	> 100000 nM	> 100000 nM	> 100000 nM	> 100000 nM	> 100000 nM	> 100000 nM	> 100000 nM	> 100000 nM	> 100000 nM	> 100000 nM										
COc1ccc(N(C)c2nc(N)nc3sc4c(c23)CCCC4)cc1	28000 nM	11000 nM	19500 nM	13000 nM		11400 nM	918 nM	15800 nM	15400 nM	4190 nM	< 12.5 nM	< 10 nM	< 12.5 nM	< 10 nM	< 10 nM	< 10 nM	< 10 nM	< 10 nM	< 13.7 nM	< 10 nM
Cn1ncc(Cl)c1-c1cc(C(=O)N[C@H](CN)Cc2ccc(F)c(F)c2)oc1Cl	2250 nM and > 6730 nM	2740 nM and 4360 nM	9120 nM and > 10000 nM	3620 nM and 1430 nM	16000 nM and > 8820 nM	5700 nM and 3710 nM	9870 nM and 5760 nM	3040 nM and 2650 nM	14200 nM and > 5200 nM	13000 nM and > 10000 nM	93.1 nM and 100 nM		426 nM and 2450 nM	26.8 nM and 20.1 nM	4820 nM and 2040 nM	1590 nM and 1490 nM	2590 nM and 1720 nM	625 nM and 494 nM	1900 nM and 870 nM	152 nM and 163 nM
O=C1c2ccccc2C(=O)c2c(OCCOCCO)cccc21	> 100000 nM	> 100000 nM	> 100000 nM	> 100000 nM	> 100000 nM	> 100000 nM	> 100000 nM	19100 nM	74200 nM	> 100000 nM										
Cc1cc([N+](=O)[O-])c2ccccc2[n+]1[O-]	7800 nM and 5950 nM		7210 nM and 7120 nM	11900 nM and 10300 nM	2420 nM and 959 nM	1080 nM and 1110 nM	755 nM and 720 nM	890 nM and 833 nM	3920 nM and 2350 nM	129 nM and 109 nM	869 nM and 1190 nM	27.9 nM and 26.4 nM	2020 nM and 2260 nM	2580 nM and 3260 nM	739 nM and 303 nM	239 nM and 259 nM	218 nM and 202 nM	252 nM and 254 nM	541 nM and 627 nM	30.7 nM and 28.2 nM
COC(=O)C=Cc1ccc2nncnc2c1 (mixture of isomers)	> 100000 nM	> 100000 nM	> 100000 nM	> 100000 nM	> 100000 nM	42600 nM	> 100000 nM	32200 nM	> 100000 nM											
O=S(=O)(c1cnccc1N1CCN(CCO)CC1)N1CCCC1		> 100000 nM	> 100000 nM	> 100000 nM	> 100000 nM	> 100000 nM	> 100000 nM	> 100000 nM	> 100000 nM	> 100000 nM										
NC(=S)c1c(N)n(C2OC(CO)C(O)C2O)c2ncnc(N)c12 (configuration not stated)	927 nM	403 nM	2920 nM		479 nM	648 nM	> 100000 nM	1370 nM	5420 nM		245 nM	63.6 nM	342 nM		188 nM	178 nM	333 nM	263 nM	515 nM	200 nM
